This is an account of results in ChEMBL document CHEMBL5678818, “Discovery of potent SOS1 inhibitors that block RAS activation via disruption of the RAS-SOS1 interaction” (Proc Natl Acad Sci U S A, 2019).

For test [1], the target named is G protein-coupled receptor kinase 3 (Homo sapiens) (UniProt P35626). Nature of the test: Inhibition of GRK3 (unknown origin) assessed as residual activity at 1000 nM by KINOMEscan analysis relative to control.
In test [2] the target is Dual specificity protein kinase CLK1 (Homo sapiens) (UniProt P49759). Briefly: Inhibition of CLK1 (unknown origin) assessed as residual activity at 100 nM by KINOMEscan analysis relative to control.
Test [3] has as its target Ephrin type-A receptor 5 (Homo sapiens) (UniProt P54756). Nature of the test: Inhibition of EPHA5 (unknown origin) assessed as residual activity at 100 nM by KINOMEscan analysis relative to control.
In test [4] the target is T1, Ephrin type-B receptor 2 (Homo sapiens) (UniProt P29323).
T1 sequence (whole entry): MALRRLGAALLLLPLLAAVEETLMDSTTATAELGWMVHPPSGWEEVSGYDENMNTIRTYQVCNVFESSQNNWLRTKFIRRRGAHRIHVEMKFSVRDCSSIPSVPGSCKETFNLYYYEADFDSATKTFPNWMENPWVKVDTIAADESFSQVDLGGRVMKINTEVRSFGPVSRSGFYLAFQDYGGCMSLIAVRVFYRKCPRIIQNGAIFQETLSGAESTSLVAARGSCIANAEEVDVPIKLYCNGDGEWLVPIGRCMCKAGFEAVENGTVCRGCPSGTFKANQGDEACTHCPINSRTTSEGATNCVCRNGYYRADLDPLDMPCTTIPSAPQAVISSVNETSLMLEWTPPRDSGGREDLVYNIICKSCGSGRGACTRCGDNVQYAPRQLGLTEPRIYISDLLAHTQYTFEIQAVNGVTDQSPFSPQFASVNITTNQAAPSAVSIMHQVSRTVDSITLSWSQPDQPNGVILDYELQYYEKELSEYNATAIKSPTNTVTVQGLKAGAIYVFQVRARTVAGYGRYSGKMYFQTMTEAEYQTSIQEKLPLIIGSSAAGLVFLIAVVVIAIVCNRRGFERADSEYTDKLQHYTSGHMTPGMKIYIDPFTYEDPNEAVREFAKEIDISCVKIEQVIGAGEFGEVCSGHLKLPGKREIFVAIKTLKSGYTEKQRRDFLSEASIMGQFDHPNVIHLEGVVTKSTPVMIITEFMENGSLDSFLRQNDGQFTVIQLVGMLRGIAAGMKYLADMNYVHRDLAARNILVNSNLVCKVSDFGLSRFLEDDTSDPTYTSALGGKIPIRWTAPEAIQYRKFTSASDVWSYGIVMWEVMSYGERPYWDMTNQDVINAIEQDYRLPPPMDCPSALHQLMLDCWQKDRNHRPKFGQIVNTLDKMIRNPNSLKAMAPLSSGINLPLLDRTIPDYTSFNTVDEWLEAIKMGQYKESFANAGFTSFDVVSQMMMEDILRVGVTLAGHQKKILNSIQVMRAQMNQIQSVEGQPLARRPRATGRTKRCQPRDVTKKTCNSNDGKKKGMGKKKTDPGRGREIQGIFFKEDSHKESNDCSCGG
Briefly: Inhibition of EPHB2 (unknown origin) assessed as residual activity at 100 nM by KINOMEscan analysis relative to control.

In test [5] the target is T2, Interleukin-1 receptor-associated kinase 3 (Homo sapiens) (UniProt Q9Y616).
T2 sequence (whole entry): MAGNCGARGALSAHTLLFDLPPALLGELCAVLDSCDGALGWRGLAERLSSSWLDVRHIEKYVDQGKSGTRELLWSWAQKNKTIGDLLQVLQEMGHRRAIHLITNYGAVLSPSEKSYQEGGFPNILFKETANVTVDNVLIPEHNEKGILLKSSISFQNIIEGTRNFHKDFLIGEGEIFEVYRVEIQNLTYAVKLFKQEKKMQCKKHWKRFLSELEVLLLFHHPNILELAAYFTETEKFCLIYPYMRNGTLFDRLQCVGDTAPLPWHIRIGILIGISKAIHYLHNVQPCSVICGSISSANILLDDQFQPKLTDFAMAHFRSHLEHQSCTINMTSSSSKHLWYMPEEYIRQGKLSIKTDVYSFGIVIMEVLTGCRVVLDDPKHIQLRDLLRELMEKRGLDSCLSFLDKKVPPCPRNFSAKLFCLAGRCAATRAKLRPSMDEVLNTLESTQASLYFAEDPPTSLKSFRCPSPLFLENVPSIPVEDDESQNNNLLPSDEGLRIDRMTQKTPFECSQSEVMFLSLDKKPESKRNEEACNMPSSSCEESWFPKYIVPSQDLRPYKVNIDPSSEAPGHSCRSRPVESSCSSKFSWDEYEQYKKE
Nature of the test: Inhibition of IRAK3 (unknown origin) assessed as residual activity at 100 nM by KINOMEscan analysis relative to control.

The target in test [6] is T3, Serine/threonine-protein kinase Nek5 (Homo sapiens) (UniProt Q6P3R8).
T3 sequence (whole entry): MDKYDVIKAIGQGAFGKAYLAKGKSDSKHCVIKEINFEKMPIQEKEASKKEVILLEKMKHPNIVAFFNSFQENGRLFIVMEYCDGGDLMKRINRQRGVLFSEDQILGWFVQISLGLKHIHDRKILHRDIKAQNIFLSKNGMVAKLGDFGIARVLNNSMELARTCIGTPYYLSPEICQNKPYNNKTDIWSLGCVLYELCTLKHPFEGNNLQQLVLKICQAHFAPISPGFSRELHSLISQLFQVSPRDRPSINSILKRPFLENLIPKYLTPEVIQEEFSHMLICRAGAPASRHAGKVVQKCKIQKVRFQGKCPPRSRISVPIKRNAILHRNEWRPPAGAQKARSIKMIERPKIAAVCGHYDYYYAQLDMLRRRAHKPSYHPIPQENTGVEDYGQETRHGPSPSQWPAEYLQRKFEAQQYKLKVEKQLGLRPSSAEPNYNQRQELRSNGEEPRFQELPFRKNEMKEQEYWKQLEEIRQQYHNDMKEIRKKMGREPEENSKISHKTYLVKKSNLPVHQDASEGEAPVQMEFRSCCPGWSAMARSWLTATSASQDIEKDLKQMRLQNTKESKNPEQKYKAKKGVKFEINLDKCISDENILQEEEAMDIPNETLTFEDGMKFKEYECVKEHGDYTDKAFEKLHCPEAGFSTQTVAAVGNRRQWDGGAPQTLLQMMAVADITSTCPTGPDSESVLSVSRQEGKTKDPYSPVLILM
Briefly: Inhibition of NEK5 (unknown origin) assessed as residual activity at 100 nM by KINOMEscan analysis relative to control.

Chain of Dual specificity protein kinase CLK1 (Homo sapiens) (P49759 whole entry, looked up): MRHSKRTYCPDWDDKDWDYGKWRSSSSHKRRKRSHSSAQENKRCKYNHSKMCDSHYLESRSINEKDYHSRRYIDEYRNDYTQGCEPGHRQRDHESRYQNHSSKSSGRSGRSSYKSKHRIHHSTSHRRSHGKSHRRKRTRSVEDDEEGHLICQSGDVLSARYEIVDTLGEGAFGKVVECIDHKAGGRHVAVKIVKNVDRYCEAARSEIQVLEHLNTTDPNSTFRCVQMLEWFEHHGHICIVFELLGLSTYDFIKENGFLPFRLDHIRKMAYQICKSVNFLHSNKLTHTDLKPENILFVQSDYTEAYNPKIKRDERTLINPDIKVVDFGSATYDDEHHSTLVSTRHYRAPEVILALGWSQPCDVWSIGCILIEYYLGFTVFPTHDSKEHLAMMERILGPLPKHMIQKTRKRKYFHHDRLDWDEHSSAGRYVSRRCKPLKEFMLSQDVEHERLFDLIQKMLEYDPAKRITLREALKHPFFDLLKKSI
Chain of Ephrin type-A receptor 5 (Homo sapiens) (P54756 whole entry): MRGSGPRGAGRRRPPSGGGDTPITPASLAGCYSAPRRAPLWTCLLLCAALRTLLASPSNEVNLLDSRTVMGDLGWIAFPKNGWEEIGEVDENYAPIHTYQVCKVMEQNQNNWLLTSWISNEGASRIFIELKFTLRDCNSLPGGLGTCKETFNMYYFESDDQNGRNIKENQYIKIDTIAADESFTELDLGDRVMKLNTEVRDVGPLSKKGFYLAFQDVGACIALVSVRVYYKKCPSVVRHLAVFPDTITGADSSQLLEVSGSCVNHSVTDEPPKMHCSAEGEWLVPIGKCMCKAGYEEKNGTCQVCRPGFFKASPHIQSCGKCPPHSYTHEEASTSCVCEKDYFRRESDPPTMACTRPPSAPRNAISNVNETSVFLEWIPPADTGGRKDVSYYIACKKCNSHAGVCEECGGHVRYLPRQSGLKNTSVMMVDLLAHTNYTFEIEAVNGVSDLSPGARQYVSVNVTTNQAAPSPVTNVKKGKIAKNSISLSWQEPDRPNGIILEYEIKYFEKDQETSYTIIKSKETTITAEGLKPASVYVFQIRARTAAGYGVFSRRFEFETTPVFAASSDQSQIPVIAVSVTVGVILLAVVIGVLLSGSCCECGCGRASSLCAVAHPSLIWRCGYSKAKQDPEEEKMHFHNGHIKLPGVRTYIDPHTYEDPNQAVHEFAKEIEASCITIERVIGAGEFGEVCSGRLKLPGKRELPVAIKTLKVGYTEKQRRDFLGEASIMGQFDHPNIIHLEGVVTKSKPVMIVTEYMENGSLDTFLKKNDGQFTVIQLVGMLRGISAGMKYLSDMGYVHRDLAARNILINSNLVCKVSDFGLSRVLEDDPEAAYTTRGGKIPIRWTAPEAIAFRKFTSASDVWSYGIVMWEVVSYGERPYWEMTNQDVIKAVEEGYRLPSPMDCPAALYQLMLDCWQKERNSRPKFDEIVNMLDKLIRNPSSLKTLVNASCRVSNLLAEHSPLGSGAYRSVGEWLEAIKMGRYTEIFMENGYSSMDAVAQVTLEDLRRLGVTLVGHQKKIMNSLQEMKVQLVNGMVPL
Chain of G protein-coupled receptor kinase 3 (Homo sapiens) (P35626 whole entry): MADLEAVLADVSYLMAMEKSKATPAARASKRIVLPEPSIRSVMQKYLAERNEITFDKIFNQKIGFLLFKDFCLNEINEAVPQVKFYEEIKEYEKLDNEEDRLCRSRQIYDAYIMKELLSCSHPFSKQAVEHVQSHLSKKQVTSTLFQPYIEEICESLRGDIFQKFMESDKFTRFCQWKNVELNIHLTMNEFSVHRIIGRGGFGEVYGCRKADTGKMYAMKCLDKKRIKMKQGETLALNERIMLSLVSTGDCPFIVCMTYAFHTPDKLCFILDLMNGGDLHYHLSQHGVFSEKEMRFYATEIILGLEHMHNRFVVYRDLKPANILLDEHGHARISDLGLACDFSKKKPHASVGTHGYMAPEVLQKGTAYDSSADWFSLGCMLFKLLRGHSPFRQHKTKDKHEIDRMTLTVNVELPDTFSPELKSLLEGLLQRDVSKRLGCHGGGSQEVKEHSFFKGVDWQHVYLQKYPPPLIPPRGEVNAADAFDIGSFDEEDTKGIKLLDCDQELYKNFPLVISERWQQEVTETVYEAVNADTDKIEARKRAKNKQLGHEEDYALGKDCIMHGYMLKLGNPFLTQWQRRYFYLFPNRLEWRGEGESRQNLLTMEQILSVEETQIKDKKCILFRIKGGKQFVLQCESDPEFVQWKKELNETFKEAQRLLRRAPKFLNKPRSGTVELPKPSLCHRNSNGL

With `COc1cc2nc(C)nc(N[C@H](C)c3cccc(-c4cn[nH]c4)c3)c2cc1OC`, in test [1], the Activity was found to be 76%.

Turning to `COc1cc2ncnc(N[C@H](C)c3cccc4ccccc34)c2cc1OC`, the Activity turned out to be 91% in test [2]; 86% in test [3]; 85% in test [4]; 100% in test [5]; 31% in test [6].
